Values of other authors as cited in publication PMC3362725, “An open-label, phase 1 study evaluating safety, tolerability, and pharmacokinetics of linifanib (ABT-869) in Japanese patients with solid tumors” (Cancer Chemotherapy and Pharmacology, 2012).

Design: method as in PMID 17634482, PMID 17557949, PMID 21131369
Conditions: mixed-population TKI phase 1 studies, phase 2 recommended dose levels; cited from earlier work

SMILES	patients with Grade 3 hypertension
CC1(C)CNc2cc(NC(=O)c3cccnc3NCc3ccncc3)ccc21 [motesanib]	14–20%
Cc1cc2c(F)c(Oc3ncnn4cc(OC[C@@H](C)O)c(C)c34)ccc2[nH]1 [brivanib]	14–20%
